Source: patent US6492365B1, “Microsomal triglyceride transfer protein” (Bristol-Myers Squibb Company, priority 1992, dated 2002)
pIC50: −log10 of the molar value. Structures can show the parent of a compound that is named as a salt.

Test system: apoB secretion from HepG2 cells
Test: ApoB secretion from HepG2 cells (ELISA of culture media)
Format: cell-based, human
Description: (§1) HepG2 cells were treated with compound A at the indicated doses for 16 hours. The concentration in the cell culture media of apoB, apoAI and HSA after the incubation period was measured with the appropriate ELISA assay and normalized to total cell protein. The data shown are expressed as a percentage of the control (DMSO only).
as §1, with “compound B” for “compound A”
The human hepatoblastoma cell line, HepG2, was obtained from the American Type Culture Collection (Rockville, Md.; ATCC accession no. 8065). […]
Experiments to measure the effects of compounds A and B on protein secretion were carried out in 48-well plates. […] Before commencement of drug treatment, culture medium was removed, the cells washed once with PBS and 1 mL of fresh medium was added quantitatively. […] The cells were homogenized by trituration with a 1 mL micropipettor, and protein was measured using the Coomassie reagent (Pierce Chemical Co, Rockford, Ill.) as described by the manufacturer. […]

Row | pIC50 (Homo sapiens, 16-hour incubation, 0.156 to 20 μM, read-out: IC50 for inhibition of apoB secretion) | Structure (SMILES) | secretion of lipoproteins that contain apoB (result in words)
1 | 5.30 | O=C1c2ccccc2CN1C1CCN(CCC(c2ccccc2)c2ccccc2)CC1 [compound A, 2-[1-(3,3-diphenylpropyl)-4-piperdinyl]-2,3-dihydro-3-oxo-1H-isoindole hydrochloride] | –
2 | – | COc1ccccc1N1CCN(CC2CC(=O)c3ccc(F)cc3C2)CC1 (centres unmarked) [compound B, 1-[3-(6-fluoro-1-tetralanyl)methyl]-4-O-methoxyphenyl piperazine] | inhibited
